Legend:
[1] = system: knee prosthesis in patients; settings: administered orally to patients undergoing total knee replacement; cited from earlier work
[2] = system: humans suffering from osteoporosis; settings: cited from earlier work
[3] = system: rats, titanium bone chamber; settings: 15-240 μg/kg/day for six weeks; cited from earlier work
[4] = system: bone-connecting implant in a human; experiment: Displacement or migration of implant by radiosterometric analysis (RSA) in patients treated with PTH; format: in vivo
Description: For example, in Hilding, M. et al., Acta Orthopaedica Scandinavica 71:553-557 (2000), several 0.8 mm tantalum markers were positioned in both the proximal tibia and the plastic insert during total knee replacement surgeries. The positions of the markers were followed by radiographs taken one day, six weeks, six months and one year following the operation as a means to monitor postoperative implant shifting. Other techniques for measuring or evaluating the stability of bone-connecting implants are known to those skilled in the art and may be applied to the present invention.
The displacement or migration of the implanted artificial hip is measured over a 6-month period using radiosterometric analysis (RSA) as described in Hilding et al., supra.
The displacement or migration of the implanted artificial hip is measured over a 9-month period using radiosterometric analysis (RSA) as described in Hilding et al., supra.
The displacement or migration of the implanted tibia is measured over a 4-month period using radiosterometric analysis (RSA) as described in Hilding et al., supra.
The displacement or migration of the implanted artificial knee is measured over a 12-month period using radiosterometric analysis (RSA) as described in Hilding et al., supra.

[5] = system: rats, stainless steel screw; settings: 60 μg/kg/day for four weeks; cited from earlier work

Compound	prosthetic migration [1]	fractures [2]	spinal bone mineral content [2]	new bone formation [3]	likelihood of reoperation ([4]; Example 1: person, osteoporosis, artificial hip, regimen of Table 1)	likelihood of reoperation ([4]; Example 2: person, osteoarthritis, artificial hip, regimen of Table 2)	likelihood of reoperation ([4]; Example 3: person, tibia replacement, regimen of Table 3)	likelihood of reoperation ([4]; Example 4: person, knee replacement, regimen of Table 4)	likelihood of reoperation ([4]; Example 5: person, artificial hip, regimen of Table 5)	fixation of a stainless steel screw [5]
O=P(O)(O)C(Cl)(Cl)P(=O)(O)O [Clodronate]	appeared to reduce prosthetic migration									
PTH(1-34): The N-terminal 34 amino acids of human PTH (parathyroid hormone); PTH utilized in Examples 1-5 (SVSEIQLMHNLGKHLNSMERVEWLRKKLQDVHNF; Parathyroid hormone; UniProt P01270 32-65, looked up, fragment)		reduce fractures	increase spinal bone mineral content	enhances new bone formation	reduce the likelihood of reoperation	reduce the likelihood of reoperation	reduce the likelihood of reoperation	reduce the likelihood of a reoperation	reduce the likelihood of reoperation	enhances fixation of a stainless steel screw
